In brackets after ≈: the same amount, converted by molar mass. Activity calls are given as the source filed them. The rule behind the calls is not given here.
Key:
Escherichia coli [1] = assay: Antibacterial activity against Escherichia coli JM109 after 24 hrs by broth micro-dilution method; assay type: functional; conditions: JM109, 24 h
Klebsiella pneumoniae = assay: Antibacterial activity against Klebsiella pneumoniae ATCC 13383 after 24 hrs by broth micro-dilution method; assay type: functional; conditions: ATCC 13383, 24 h
Pseudomonas aeruginosa = assay: Antibacterial activity against multidrug-resistant Pseudomonas aeruginosa ATCC 27853 after 24 hrs by broth micro-dilution method; assay type: functional; conditions: ATCC 27853, 24 h
Bacillus subtilis [2] = assay: Antibacterial activity against Bacillus subtilis BR151 after 24 hrs by broth micro-dilution method; assay type: functional; conditions: BR151, 24 h
[3] = test system: Staphylococcus epidermidis; assay: Antibacterial activity against multidrug-resistant Staphylococcus epidermidis RP62A after 24 hrs by broth micro-dilution method; assay type: functional
Enterococcus faecalis = assay: Antibacterial activity against vancomycin-resistant Enterococcus faecalis ATCC 700802 after 24 hrs by broth micro-dilution method; assay type: functional; conditions: ATCC 700802, 24 h
Staphylococcus aureus [4] = assay: Antibacterial activity against methicillin-resistant Staphylococcus aureus ATCC 33592 after 24 hrs by broth micro-dilution method; assay type: functional; conditions: ATCC 33592, 24 h
Candida albicans = assay: Antifungal activity against Candida albicans ATCC 10231 after 48 hrs by broth micro-dilution method; assay type: functional; conditions: ATCC 10231, 48 h
[5] = Toxicity in human RBC assessed as hemolysis after 1 hr; assay type: cell-based, Erythrocyte; conditions: for HC10: erythrocyte, 1 h; for HC50 at 1 h: red blood cells
[6] = Selectivity ratio of HC50 for human RBC to MIC for methicillin-resistant Staphylococcus aureus ATCC 33592; assay type: functional
Staphylococcus aureus [7] = assay: Antibacterial activity against methicillin-resistant Staphylococcus aureus ATCC 33592 assessed as lipid membrane depolarization after 10 mins by DiSC3-5 staining-based fluorescence analysis; assay type: functional, organism-based
Staphylococcus aureus [8] = assay: Resistance ratio, MIC for methicillin-resistant Staphylococcus aureus ATCC 33592 grown on half-MIC concentration for 3 passages to MIC for methicillin-resistant Staphylococcus aureus ATCC 33592 after 24 hrs; assay type: functional
Escherichia coli [9] = assay: Antibacterial activity against Escherichia coli JM109 assessed as membrane disruption at 10 ug/ml after 2 hrs by DAPI staining-based fluorescence microscopic analysis; assay type: functional, organism-based
Escherichia coli [10] = assay: Antibacterial activity against Escherichia coli JM109 assessed as membrane disruption at 10 ug/ml after 2 hrs by propidium iodide staining-based fluorescence microscopic analysis; assay type: functional, organism-based
Bacillus subtilis [11] = assay: Antibacterial activity against Bacillus subtilis BR151 assessed as membrane disruption at 10 ug/ml after 2 hrs by DAPI staining-based fluorescence microscopic analysis; assay type: functional, organism-based
Bacillus subtilis [12] = assay: Antibacterial activity against Bacillus subtilis BR151 assessed as membrane disruption at 10 ug/ml after 2 hrs by propidium iodide staining-based fluorescence microscopic analysis; assay type: functional, organism-based
Escherichia coli [13] = assay: Antibacterial activity against Escherichia coli JM109 assessed as loss membrane potential at 10 ug/ml; assay type: functional, organism-based
Bacillus subtilis [14] = assay: Antibacterial activity against Bacillus subtilis BR151 assessed as loss membrane potential at 10 ug/ml; assay type: functional, organism-based
Staphylococcus aureus [15] = assay: Antibacterial activity against methicillin-resistant Staphylococcus aureus ATCC 33592 grown on half-MIC concentration for 17 passages measured after 17 days by broth-microdilution method; assay type: functional, organism-based
N2a [16] = assay: Toxicity against mouse N2A cells expressing amyloid precursor protein up to 50 ug/ml after 36 hrs by MTT assay; assay type: cell-based
N2a [17] = assay: Toxicity against mouse N2A cells expressing amyloid precursor protein up to 100 ug/ml after 36 hrs by MTT assay; assay type: cell-based
[18] = Selectivity for Escherichia coli JM109 over mouse N2A cells expressing amyloid precursor protein
[19] = Selectivity for Klebsiella pneumoniae ATCC 13383 over mouse N2A cells expressing amyloid precursor protein
[20] = Selectivity for Bacillus subtilis BR151 over mouse N2A cells expressing amyloid precursor protein

SMILES	MIC (Escherichia coli [1]) [µg/mL]	MIC (Klebsiella pneumoniae) [µg/mL]	MIC (Pseudomonas aeruginosa) [µg/mL]	MIC (Bacillus subtilis [2]) [µg/mL]	MIC [3] [µg/mL]	MIC (Enterococcus faecalis) [µg/mL]	MIC (Staphylococcus aureus [4]) [µg/mL]	MIC (Candida albicans) [µg/mL]	HC10 [5] [µg/mL]	HC50 at 1 h [5] [µg/mL]	Ratio [6]	Activity (Staphylococcus aureus [7])	other results
CCCCCCCC/C=C\CCCCCCCC(=O)N[C@@H](CCCCN)C(=O)N[C@@H](CCCCN)CN(CC(N)=O)C(=O)CCCN	10 (≈ 15 µM)	40 (≈ 60.1 µM)	15 (≈ 22.5 µM)	2 (≈ 3 µM)	2 (≈ 3 µM)	2.5 (≈ 3.75 µM)	5 (≈ 7.51 µM)	5 (≈ 7.51 µM)	80	> 500	> 100	Active	–
CCn1cc(C(=O)O)c(=O)c2cc(F)c(N3CCNCC3)cc21 [NORFLOXACIN]	–	–	–	–	–	–	–	–	–	–	–	–	Ratio (Staphylococcus aureus [8]): >20
CCCCCCCCCCCCCCCC(=O)N[C@@H](CCCCN)CN(CC(N)=O)C(=O)CCCN	2.5 (≈ 4.88 µM)	35 (≈ 68.4 µM)	10 (≈ 19.5 µM)	1.5 (≈ 2.93 µM)	2 (≈ 3.91 µM)	2.5 (≈ 4.88 µM)	2.5 (≈ 4.88 µM)	2 (≈ 3.91 µM)	25	40	16	Active	–
CCCCCCCC/C=C\CCCCCCCC(=O)N[C@@H](C)CN(CC(=O)N[C@@H](C)CN(CC(=O)N[C@@H](CC(C)C)CN(CC(=O)N[C@@H](CC(C)C)CN(CC(=O)N[C@@H](CC(C)C)CN(CC(N)=O)C(=O)CCCN)C(=O)CCCN)C(=O)CCCN)C(C)=O)C(C)=O	3 (≈ 2.28 µM)	3 (≈ 2.28 µM)	3 (≈ 2.28 µM)	3 (≈ 2.28 µM)	3 (≈ 2.28 µM)	4 (≈ 3.04 µM)	3 (≈ 2.28 µM)	3 (≈ 2.28 µM)	100	> 500	> 167	Active	Activity (Escherichia coli [9]): Active; Activity (Escherichia coli [10]): Active; Activity (Bacillus subtilis [11]): Active; Activity (Bacillus subtilis [12]): Active; Activity (Escherichia coli [13]): Active; Activity (Bacillus subtilis [14]): Active
CCCCCCCCCCCCCCCC(=O)N[C@@H](CCCCN)CN(CC(=O)N[C@@H](CCCCN)CN(CC(=O)N[C@@H](CCCCN)CN(CC(N)=O)C(=O)CCCN)C(=O)CCCN)C(=O)CCCN	20 (≈ 19.5 µM)	> 50	15 (≈ 14.6 µM)	1.5 (≈ 1.46 µM)	2 (≈ 1.95 µM)	10 (≈ 9.76 µM)	5 (≈ 4.88 µM)	2 (≈ 1.95 µM)	300	> 500	> 100	Active	–
CCCCCCCC/C=C\CCCCCCCC(=O)N[C@@H](CCCCN)CN(CC(N)=O)C(=O)CCCN	2.5 (≈ 4.65 µM)	35 (≈ 65.1 µM)	3 (≈ 5.58 µM)	2 (≈ 3.72 µM)	2 (≈ 3.72 µM)	2.5 (≈ 4.65 µM)	4 (≈ 7.44 µM)	2 (≈ 3.72 µM)	40	100	25	Active	–
CCCCCCCCCCCCCCCC(=O)N[C@@H](CCCCN)CN(CC(=O)N[C@@H](CCCCN)CN(CC(N)=O)C(=O)CCCN)C(=O)CCCN	30 (≈ 39.1 µM)	20 (≈ 26 µM)	20 (≈ 26 µM)	1.5 (≈ 1.95 µM)	2.5 (≈ 3.25 µM)	8 (≈ 10.4 µM)	5 (≈ 6.51 µM)	2 (≈ 2.6 µM)	40	300	60	Active	–
CCCCCCCCCCCCCCCC(=O)N[C@@H](C)CN(CC(=O)N[C@@H](C)CN(CC(=O)N[C@@H](CC(C)C)CN(CC(=O)N[C@@H](CC(C)C)CN(CC(=O)N[C@@H](CC(C)C)CN(CC(N)=O)C(=O)CCCN)C(=O)CCCN)C(=O)CCCN)C(C)=O)C(C)=O	2.5 (≈ 1.94 µM)	5 (≈ 3.87 µM)	5 (≈ 3.87 µM)	2.5 (≈ 1.94 µM)	4 (≈ 3.1 µM)	5 (≈ 3.87 µM)	4 (≈ 3.1 µM)	5 (≈ 3.87 µM)	60	> 500	> 125	Active	Activity (Escherichia coli [9]): Active; Activity (Escherichia coli [10]): Active; Activity (Bacillus subtilis [11]): Active; Activity (Bacillus subtilis [12]): Active; Activity (Escherichia coli [13]): Active; Activity (Bacillus subtilis [14]): Active; Activity (Staphylococcus aureus [15]): Active; Activity (N2a [16]): Non-toxic; Activity (N2a [17]): 50%; Ratio [18]: 10; Ratio [19]: 10; Ratio [20]: 10
CCCCCCCC/C=C\CCCCCCCC(=O)N[C@@H](CCCCN)CN(CC(=O)N[C@@H](CCCCN)CN(CC(N)=O)C(=O)CCCN)C(=O)CCCN	10 (≈ 12.6 µM)	15 (≈ 18.9 µM)	3 (≈ 3.78 µM)	2.5 (≈ 3.15 µM)	4 (≈ 5.04 µM)	5 (≈ 6.3 µM)	5 (≈ 6.3 µM)	2 (≈ 2.52 µM)	250	> 500	> 100	Active	–
CCCCCCCCCCCC(=O)N[C@@H](CCCCN)CN(CC(N)=O)C(=O)CCCN	> 50	> 50	> 50	> 50	> 50	> 50	> 50	> 50	400	> 500	–	–	–
CC(=O)N(CC(=O)N[C@@H](C)CN(CC(=O)N[C@@H](CC(C)C)CN(CC(=O)N[C@@H](CC(C)C)CN(CC(=O)N[C@@H](CC(C)C)CN(CC(N)=O)C(=O)CCCN)C(=O)CCCN)C(=O)CCCN)C(C)=O)C[C@H](C)N	> 100	> 100	> 100	> 100	> 100	> 100	> 100	> 100	120	> 500	–	–	–
CCCCCCCCCCCCCCCC(=O)N[C@@H](C)CN(CC(=O)N[C@@H](C)CN(CC(=O)N[C@@H](CCC(=O)O)CN(CC(=O)N[C@@H](CCC(=O)O)CN(CC(=O)N[C@@H](CCC(=O)O)CN(CC(N)=O)C(=O)CC(=O)O)C(=O)CC(=O)O)C(=O)CC(=O)O)C(C)=O)C(C)=O	> 100	> 100	> 100	> 100	> 100	> 100	> 100	> 100	250	> 500	–	–	–
CCCCCCCCCCCCCCCC(=O)N[C@@H](C)CN(CC(=O)N[C@@H](C)CN(CC(=O)N[C@@H](CCCCN)CN(CC(=O)N[C@@H](CCCCN)CN(CC(=O)N[C@@H](CCCCN)CN(CC(N)=O)C(=O)CCCN)C(=O)CCCN)C(=O)CCCN)C(C)=O)C(C)=O	2.5 (≈ 1.87 µM)	15 (≈ 11.2 µM)	15 (≈ 11.2 µM)	2.5 (≈ 1.87 µM)	10 (≈ 7.48 µM)	10 (≈ 7.48 µM)	10 (≈ 7.48 µM)	7.5 (≈ 5.61 µM)	200	> 500	> 50	Active	–
CCCCCCCCCCCCCCCC(=O)N[C@@H](C)CN(CC(=O)N[C@@H](C)CN(CC(=O)N[C@@H](Cc1ccccc1)CN(CC(=O)N[C@@H](Cc1ccccc1)CN(CC(=O)N[C@@H](Cc1ccccc1)CN(CC(N)=O)C(=O)CC(=O)O)C(=O)CC(=O)O)C(=O)CC(=O)O)C(C)=O)C(C)=O	> 100	> 100	> 100	> 100	> 100	> 100	> 100	> 100	200	> 500	–	–	–
CC(C)C[C@@H](CN(CC(=O)N[C@@H](CCCCN)CN(CC(N)=O)C(=O)CCc1ccccc1)C(=O)CCc1ccccc1)NC(=O)CN(C[C@H](CCCCN)NC(=O)CN(C[C@H](CCCCN)NC(=O)CN(C[C@H](CC(C)C)NC(=O)CN(C[C@H](CCCCN)NC(=O)CN(C[C@@H](N)CCCCN)C(=O)CCc1ccccc1)C(=O)CCc1ccccc1)C(=O)CCc1ccccc1)C(=O)CCc1ccccc1)C(=O)CCc1ccccc1	3 (≈ 1.42 µM)	5 (≈ 2.37 µM)	> 50	2 (≈ 0.947 µM)	5 (≈ 2.37 µM)	5 (≈ 2.37 µM)	5 (≈ 2.37 µM)	8 (≈ 3.79 µM)	75	300	60	–	–
